From ChEMBL document CHEMBL1201862, “PubChem BioAssay data set” (2004) come the findings set out here.

SMILES strings stand for the structures. Calls of active or inactive are those of the source.

In assay [1] the target is Cytochrome P450 3A4 (Homo sapiens, UniProt P08684). The following applies: Potency.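 Further: confirmatory qHTS run detecting inhibitors and substrates of CYP3A4.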
For assay [2], the target named is T1, Protein skinhead-1 (Caenorhabditis elegans, UniProt P34707).
T1 sequence (P34707 whole entry): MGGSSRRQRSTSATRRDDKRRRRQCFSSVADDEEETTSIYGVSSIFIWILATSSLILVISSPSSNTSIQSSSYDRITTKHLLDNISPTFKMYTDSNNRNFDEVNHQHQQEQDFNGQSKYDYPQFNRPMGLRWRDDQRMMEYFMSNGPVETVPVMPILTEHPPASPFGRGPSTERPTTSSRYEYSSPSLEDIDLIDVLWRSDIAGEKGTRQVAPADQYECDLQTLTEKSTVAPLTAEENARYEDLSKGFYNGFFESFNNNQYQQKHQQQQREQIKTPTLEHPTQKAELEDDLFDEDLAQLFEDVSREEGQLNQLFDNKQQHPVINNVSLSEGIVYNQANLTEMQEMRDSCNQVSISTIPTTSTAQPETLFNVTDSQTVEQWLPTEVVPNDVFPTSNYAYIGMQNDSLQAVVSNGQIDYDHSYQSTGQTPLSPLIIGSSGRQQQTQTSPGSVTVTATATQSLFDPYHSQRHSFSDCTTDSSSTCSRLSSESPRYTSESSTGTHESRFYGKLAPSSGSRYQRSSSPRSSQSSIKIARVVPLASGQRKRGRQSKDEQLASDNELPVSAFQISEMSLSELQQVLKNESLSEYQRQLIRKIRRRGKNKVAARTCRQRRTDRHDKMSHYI
The class given is functional.

Assay [3] can be described thus: A cytotoxicity screen of small molecule inhibitors of the PhoP region in Salmonella typhi identified in the primary screen. [Related pubchem assays: 1850, 1864, 1985 ]. The class given is functional.
The target in assay [4] is G-protein coupled receptor 55 (Homo sapiens, UniProt Q9Y2T6). As to the kind of experiment: GPR55 antagonists blocking LPI-driven arrestin recruitment, primary screen, imaging, U2OS, beta-arrestin-GFP, LPI agonist (AID 2013).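 Further: antagonist potency measured as reduced agonist-driven arrestin aggregation.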 It is filed as functional. A general note: Activated receptors often draw arrestin, which recruitment assays turn into a signal.
Sequence of G-protein coupled receptor 55 (Q9Y2T6 whole entry): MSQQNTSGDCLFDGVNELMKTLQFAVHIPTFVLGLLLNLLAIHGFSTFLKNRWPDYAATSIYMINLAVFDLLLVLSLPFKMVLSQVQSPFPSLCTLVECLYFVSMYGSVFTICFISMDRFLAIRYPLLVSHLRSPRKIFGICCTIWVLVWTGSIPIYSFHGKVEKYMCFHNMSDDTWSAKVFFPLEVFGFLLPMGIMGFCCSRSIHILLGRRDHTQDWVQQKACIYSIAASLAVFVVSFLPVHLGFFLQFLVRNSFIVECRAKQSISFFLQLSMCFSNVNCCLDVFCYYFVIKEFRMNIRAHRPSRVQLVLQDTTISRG
Assay [5] is described as follows: A Cell Based Secondary Assay To Explore Cytotoxicity of Compounds that Sensitize Mycobacterium Tuberculosis to Beta-Lactam Antibiotics. The class given is functional.
The nature of assay [6]: growth suppression of beta-catenin-knockout colon cells, dose response, cell-based, HCT116, human colon tumor (AID 1045).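 Further: HCT116 colon tumor cells with beta catenin knocked out; cells exposed to compound for 60 hours.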 The class given is functional.
A short description of assay [7]: growth suppression of PTEN-null colon cells, dose response, cell-based, HCT116 PTEN knockout (AID 1047).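 Further: HCT116 colon tumor cells with PTEN knocked out; cells exposed to compound for 60 hours before readout; potency for loss of cell viability measured by luminescence.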 It is filed as functional.
The target of assay [8] is T2, Mannose-6-phosphate isomerase (Homo sapiens, UniProt P34949).
T2 sequence (P34949 whole entry): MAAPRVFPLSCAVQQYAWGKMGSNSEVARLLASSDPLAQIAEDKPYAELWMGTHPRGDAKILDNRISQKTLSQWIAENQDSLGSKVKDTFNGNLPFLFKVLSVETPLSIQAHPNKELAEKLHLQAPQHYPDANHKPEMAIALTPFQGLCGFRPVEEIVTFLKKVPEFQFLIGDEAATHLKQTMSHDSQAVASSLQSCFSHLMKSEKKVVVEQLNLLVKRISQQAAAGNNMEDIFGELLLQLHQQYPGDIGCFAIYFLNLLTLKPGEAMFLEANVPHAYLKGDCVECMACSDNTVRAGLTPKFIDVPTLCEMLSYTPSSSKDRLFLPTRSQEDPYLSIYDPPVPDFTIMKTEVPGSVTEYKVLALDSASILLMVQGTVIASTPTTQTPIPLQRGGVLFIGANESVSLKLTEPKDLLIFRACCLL
Put plainly: PMI enzyme inhibitors, confirmation, biochemical, fluorescence intensity (AID 1535).

Assay [9] addresses T3, Phosphomannomutase 2 (Homo sapiens, UniProt O15305).
T3 sequence (O15305 whole entry): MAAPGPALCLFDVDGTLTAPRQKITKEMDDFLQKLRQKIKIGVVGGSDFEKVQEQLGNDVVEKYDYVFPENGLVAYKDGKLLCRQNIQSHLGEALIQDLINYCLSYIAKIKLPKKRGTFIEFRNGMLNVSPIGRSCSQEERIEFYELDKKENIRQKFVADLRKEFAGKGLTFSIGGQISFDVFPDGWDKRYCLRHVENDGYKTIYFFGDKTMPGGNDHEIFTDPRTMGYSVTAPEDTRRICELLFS
Put plainly: Counter screen SAR assay for PMM2 inhibitors via a fluorescence intensity assay. [Related pubchem assays (depositor defined):AID1545, AID1574]. (In general: A counterscreen serves to expose hits that act by an unwanted route or on another target.)

Assay [10] deals with T4, Short transient receptor potential channel 4 (Mus musculus, UniProt Q9QUQ5).
T4 sequence (Q9QUQ5 whole entry): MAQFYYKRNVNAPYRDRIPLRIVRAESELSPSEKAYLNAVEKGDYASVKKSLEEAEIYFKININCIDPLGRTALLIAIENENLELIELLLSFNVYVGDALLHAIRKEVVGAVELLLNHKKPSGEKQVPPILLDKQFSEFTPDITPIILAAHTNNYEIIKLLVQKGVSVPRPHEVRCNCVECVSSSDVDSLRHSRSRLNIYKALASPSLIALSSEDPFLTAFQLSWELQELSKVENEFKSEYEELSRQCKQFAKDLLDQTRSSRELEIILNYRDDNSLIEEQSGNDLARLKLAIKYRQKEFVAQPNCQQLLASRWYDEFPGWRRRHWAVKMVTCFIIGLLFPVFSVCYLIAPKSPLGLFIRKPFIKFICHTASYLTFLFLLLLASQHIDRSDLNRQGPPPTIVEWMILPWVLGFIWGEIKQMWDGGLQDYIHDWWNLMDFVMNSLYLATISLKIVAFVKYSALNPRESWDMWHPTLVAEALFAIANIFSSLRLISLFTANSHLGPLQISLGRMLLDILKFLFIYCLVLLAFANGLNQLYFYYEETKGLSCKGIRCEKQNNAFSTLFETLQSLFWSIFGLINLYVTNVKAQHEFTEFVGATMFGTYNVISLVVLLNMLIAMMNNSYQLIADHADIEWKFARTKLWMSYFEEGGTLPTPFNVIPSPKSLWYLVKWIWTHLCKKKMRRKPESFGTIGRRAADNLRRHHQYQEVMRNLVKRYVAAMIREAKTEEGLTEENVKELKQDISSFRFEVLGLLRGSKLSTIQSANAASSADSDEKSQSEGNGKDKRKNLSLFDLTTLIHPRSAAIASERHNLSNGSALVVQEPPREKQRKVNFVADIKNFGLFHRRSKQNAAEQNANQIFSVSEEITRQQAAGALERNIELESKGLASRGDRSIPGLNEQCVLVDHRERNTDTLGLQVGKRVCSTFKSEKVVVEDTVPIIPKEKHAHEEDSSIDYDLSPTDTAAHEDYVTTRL
Put plainly: mouse TRPC4 channel activators, dose response, cell-based, HEK293 TRPC4/mu-opioid, Fluo-4 calcium (AID 434937). It is filed as functional.

In assay [11] the target is DNA dC->dU-editing enzyme APOBEC-3G (Homo sapiens, UniProt Q9HC16). Put plainly: Dose Response confirmation of small molecule APOBEC3G DNA Deaminase Inhibitors via a fluorescence-based single-stranded DNA deaminase assay. [Related pubchem assays (depositor defined):AID493012, AID493028]. The class given is functional.
Sequence of DNA dC->dU-editing enzyme APOBEC-3G (Q9HC16 whole entry): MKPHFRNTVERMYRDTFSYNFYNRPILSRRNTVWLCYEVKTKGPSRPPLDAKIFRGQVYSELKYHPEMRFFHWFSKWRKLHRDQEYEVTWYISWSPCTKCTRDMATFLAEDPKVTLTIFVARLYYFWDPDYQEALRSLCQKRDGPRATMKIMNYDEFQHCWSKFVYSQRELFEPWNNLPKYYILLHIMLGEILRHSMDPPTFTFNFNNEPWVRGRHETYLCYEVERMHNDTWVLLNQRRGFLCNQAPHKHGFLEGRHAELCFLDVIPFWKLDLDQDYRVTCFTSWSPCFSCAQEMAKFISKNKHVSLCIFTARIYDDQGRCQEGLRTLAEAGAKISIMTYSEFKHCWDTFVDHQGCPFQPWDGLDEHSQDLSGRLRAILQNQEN
In assay [12] the target is DNA dC->dU-editing enzyme APOBEC-3A (Homo sapiens, UniProt P31941). As to the kind of experiment: APOBEC3A DNA deaminase inhibitors, dose response, biochemical (AID 504722). It is filed as functional.
Sequence of DNA dC->dU-editing enzyme APOBEC-3A (P31941 whole entry): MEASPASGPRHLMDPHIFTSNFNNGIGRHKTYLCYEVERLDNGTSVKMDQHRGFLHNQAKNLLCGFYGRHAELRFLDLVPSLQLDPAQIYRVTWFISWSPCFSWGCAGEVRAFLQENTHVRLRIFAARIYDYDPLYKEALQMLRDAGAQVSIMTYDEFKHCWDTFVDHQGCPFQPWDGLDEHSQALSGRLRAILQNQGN
The target of assay [13] is Large T antigen (Simian virus 40, UniProt P03070). It is filed as functional, Betapolyomavirus macacae.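 Further: Confirmatory-stage PubChem screen for compounds that inhibit SV40 T antigen.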
Sequence of Large T antigen (P03070 whole entry): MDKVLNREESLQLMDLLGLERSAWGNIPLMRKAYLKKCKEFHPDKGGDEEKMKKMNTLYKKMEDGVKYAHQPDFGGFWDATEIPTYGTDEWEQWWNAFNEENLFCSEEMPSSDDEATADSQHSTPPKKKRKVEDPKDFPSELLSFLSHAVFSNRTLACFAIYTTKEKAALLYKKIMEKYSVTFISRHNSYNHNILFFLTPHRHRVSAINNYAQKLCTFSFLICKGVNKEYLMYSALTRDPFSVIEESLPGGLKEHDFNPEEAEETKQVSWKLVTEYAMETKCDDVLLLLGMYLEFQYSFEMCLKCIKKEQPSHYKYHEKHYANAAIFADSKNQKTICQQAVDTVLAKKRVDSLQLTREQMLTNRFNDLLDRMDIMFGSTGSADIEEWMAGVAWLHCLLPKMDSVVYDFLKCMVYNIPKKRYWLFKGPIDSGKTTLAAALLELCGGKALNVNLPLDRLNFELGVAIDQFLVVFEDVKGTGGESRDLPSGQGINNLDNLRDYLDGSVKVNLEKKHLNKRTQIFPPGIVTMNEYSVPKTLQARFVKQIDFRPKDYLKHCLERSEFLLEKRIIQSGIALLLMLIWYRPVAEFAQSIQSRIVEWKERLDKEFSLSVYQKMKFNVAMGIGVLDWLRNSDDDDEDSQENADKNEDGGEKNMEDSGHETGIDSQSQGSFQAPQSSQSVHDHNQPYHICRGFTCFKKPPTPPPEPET
For assay [14], the target named is T5, Rac GTPase-activating protein 1 (Homo sapiens, UniProt Q9H0H5).
T5 sequence (Q9H0H5 whole entry): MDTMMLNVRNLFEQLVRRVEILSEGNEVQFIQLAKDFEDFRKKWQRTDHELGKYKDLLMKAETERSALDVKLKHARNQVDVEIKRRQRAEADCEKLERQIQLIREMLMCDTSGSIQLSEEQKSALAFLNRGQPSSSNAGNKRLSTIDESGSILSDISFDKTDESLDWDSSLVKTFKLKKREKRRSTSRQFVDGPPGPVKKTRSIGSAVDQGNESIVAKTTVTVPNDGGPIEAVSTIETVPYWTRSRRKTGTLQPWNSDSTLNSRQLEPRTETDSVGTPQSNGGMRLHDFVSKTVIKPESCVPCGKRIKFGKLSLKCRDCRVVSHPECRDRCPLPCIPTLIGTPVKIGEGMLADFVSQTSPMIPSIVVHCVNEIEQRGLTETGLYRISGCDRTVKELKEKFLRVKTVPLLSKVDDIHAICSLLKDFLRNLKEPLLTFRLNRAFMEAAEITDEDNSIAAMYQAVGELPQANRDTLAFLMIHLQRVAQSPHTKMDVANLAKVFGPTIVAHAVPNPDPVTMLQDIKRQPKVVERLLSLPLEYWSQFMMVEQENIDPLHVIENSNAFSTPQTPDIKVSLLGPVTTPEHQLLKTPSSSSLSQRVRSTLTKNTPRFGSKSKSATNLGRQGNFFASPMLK
As to the kind of experiment: MgcRacGAP GTPase-activating activity inhibitors, confirmation, biochemical, ADP Hunter fluorescence, primary and confirmatory (AID 624330). The class given is functional.

The target in assay [15] is T6, Coagulation factor XII (Homo sapiens, UniProt P00748).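 Further: activated factor XIIa alpha cleaving a fluorogenic AMC peptide substrate; inhibitor potency from loss of enzyme activity.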
T6 sequence (P00748 whole entry): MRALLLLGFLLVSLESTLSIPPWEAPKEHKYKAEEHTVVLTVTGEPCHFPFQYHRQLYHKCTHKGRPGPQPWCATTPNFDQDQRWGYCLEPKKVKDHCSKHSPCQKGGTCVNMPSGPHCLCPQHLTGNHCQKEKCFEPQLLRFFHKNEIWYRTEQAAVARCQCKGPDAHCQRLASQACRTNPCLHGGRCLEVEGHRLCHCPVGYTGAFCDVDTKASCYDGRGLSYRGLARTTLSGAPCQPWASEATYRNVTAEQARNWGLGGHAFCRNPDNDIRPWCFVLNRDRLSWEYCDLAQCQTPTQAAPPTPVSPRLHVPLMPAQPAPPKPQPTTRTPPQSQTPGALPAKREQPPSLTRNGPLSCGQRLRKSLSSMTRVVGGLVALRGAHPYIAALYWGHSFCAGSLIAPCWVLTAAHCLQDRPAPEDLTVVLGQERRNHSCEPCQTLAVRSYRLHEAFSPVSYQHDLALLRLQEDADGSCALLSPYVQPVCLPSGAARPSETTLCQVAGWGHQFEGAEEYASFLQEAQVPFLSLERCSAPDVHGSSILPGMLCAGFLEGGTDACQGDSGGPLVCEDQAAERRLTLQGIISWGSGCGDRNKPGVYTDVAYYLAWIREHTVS
It is filed as functional.

Sequence of Cytochrome P450 3A4 (P08684 whole entry): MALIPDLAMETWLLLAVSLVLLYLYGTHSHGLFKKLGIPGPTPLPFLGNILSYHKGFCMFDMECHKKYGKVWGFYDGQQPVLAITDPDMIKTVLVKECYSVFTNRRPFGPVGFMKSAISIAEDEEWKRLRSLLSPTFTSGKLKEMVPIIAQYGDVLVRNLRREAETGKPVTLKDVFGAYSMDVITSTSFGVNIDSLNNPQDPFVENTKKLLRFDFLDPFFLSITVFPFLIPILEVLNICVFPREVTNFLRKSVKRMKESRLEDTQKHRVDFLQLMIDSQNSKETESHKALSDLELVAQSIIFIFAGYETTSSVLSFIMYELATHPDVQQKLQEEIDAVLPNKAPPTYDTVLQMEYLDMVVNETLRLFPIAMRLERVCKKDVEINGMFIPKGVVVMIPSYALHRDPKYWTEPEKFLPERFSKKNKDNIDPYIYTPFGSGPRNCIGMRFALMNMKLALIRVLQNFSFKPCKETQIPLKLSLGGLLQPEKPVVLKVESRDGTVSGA

With `Cc1cc(=O)cc2oc3cc(N)c(-c4c(C)cc(O)cc4O)c(C)c3nc1-2`, in assay [1], the AC50 (as a rule, the concentration giving half of the maximal activity seen) was 39.8 µM (inconclusive).

As to `COC(=O)[C@@H]1C[C@@H]2CC[C@@H](O)C[C@@H]2N1Cc1ccc(C(F)(F)F)cc1`, in assay [1], the concentration at half-maximal activity (AC50) is 10 µM (inconclusive). In the case of `COc1ccccc1C1CN(c2ccc(F)cc2F)N=C1c1cccs1` (stereo not drawn), the IC50 (in general, the concentration that gives 50% inhibition) in [2] was > 100 µM (inactive). The EC50 – broadly, the concentration that produces a half-maximal response – in assay [3] was > 50 µM (active). On to `CCOC(=O)c1c(NC(=O)C2=C(C)N=C(S)NC2c2ccc(CC)cc2)sc(C)c1C` (stereo not drawn), for which, in [4], the half-maximal inhibitory concentration (IC50) was 1.64 µM (active).

Take `COc1ccc(NC(=O)CN2CCN(C3c4ccccc4-c4ccccc43)CC2)c(OC)c1`: the concentration for half-maximal inhibition (IC50) in [4] is 2.19 µM (active). Further, in [5], the CC50 (commonly the concentration giving 50% cytotoxicity) was > 40 µM (active). Consider `COc1ccc(OCC(O)Cn2c(=N)n(Cc3ccccc3)c3ccccc32)cc1` (stereo not drawn), for which the EC50 in assay [6] is 7.38 µM (active); in assay [7] it was 7.31 µM (active). For the same compound, the IC50 in [4] was 3.61 µM (active). Turning to `Cc1c(Cl)cccc1/N=c1\ssnc1Cl`, the IC50 in [8] and in [9] was > 100 µM (inactive) throughout. With `O=[N+]([O-])c1c(Br)cccc1/N=c1\ssnc1Cl`, the IC50 in assay [8] is 7.37 µM (active); in assay [9], 4.8 µM (active). Turning to `Cc1c(CN2CCC(n3nccc3NC(=O)C3CC3)CC2)[nH]c2ccccc12`, the EC50 in [10] is 0.596 µM (active).

On to `Clc1nss/c1=N\c1cnc2ccccc2c1`, for which the values for the IC50 in assay [8] and in assay [9] were 67.2 µM (active) and > 100 µM (inactive), respectively. In the case of `COc1cc2c(cc1OC)C(C)N(C(=O)C(NC(=O)c1ccccc1)C(C)C)CC2` (stereo not drawn), in assay [10], the EC50 is 5.96 µM (active). Regarding `COc1ccc(/C=N/n2c(S)nnc2-c2cc(C)[nH]n2)cc1`, the IC50 is 3.83 µM (active) in [11] and > 100 µM (inactive) in assay [12]. As for `CC(/C=N/n1c(S)nnc1-c1ccncc1)=C\c1ccco1`, the IC50 in assay [13] was 45 µM (active); in assay [11], 2.71 µM (active); in assay [12], > 100 µM (inactive).

Regarding `Sc1nnc(-c2ccncc2)n1/N=C/C=C/c1ccco1`, the IC50 in [14] was 81.9 µM (active); in [11] it was 2.54 µM (active); in [12], 26.7 µM (active); in assay [15] it was 45.3 µM (active). For the compound `COc1ccc(-c2coc3c(O)c(OC)ccc3c2=O)cc1` [RETUSIN 7-METHYL ETHER], the half-maximal activity concentration (AC50) in assay [1] is 31.6 µM (inconclusive).
